In ChEMBL document CHEMBL5625213, “Novel acridine-based LSD1 inhibitors enhance immune response in gastric cancer” (Eur J Med Chem, 2023):
Calls of active or inactive are those of the source. The calls are words filed in the database; no cut-off is given here.

Assays:
[1] = target: T1, Lysine-specific histone demethylase 1A (Homo sapiens, UniProt O60341); assay: Inhibition of recombinant LSD1 ( unknown origin) expressed in Escherichia coli BL21 (DE3) cells using H3K4me2 peptide as substrate incubated for 30 mins in presence of FAD by fluorescence microplate reader analysis
[2] = system: BGC-823; assay: Downregulation of PD-L1 mRNA level in human BGC-823 cells at 0.5 to 2 uM incubated for 5 days by qRT-PCR analysis; type: functional, cell-based; conditions: dose 0.5-2 µM, time 5.0 day
[3] = system: MFC; assay: Antitumor activity against MFC cells implanted in 615 mouse assessed as inhibition of tumor growth administered intragastrically for 14 days; type: functional, cell-based; conditions: dose 15-50 mg/kg, route ig, time 14.0 day
[4] = target: T1, Lysine-specific histone demethylase 1A; assay: Binding affinity to LSD1 in human BGC-823 cells assessed as thermal stability at 2 uM measured at 40 to 55 degreeC by cellular thermal shift assay; type: cell-based
[5] = system: BGC-823; assay: Inhibition of stemness in human BGC-823 cells assessed as inhibition of Nanog expression at 0.5 to 2 uM by Western blot analysis; type: functional, cell-based; conditions: dose 0.5-2 µM
[6] = system: BGC-823; assay: Cytotoxicity against human BGC-823 cells co-cultured with T cells assessed as increase in 4-1BB mRNA level at 1 uM by qRT-PCR analysis; type: functional, cell-based
[7] = system: BGC-823; assay: Inhibition of stemness in human BGC-823 cells assessed as inhibition of OCT4 expression at 0.5 to 2 uM by Western blot analysis; type: functional, cell-based; conditions: dose 0.5-2 µM
[8] = Toxicity in 615 mouse implanted with MFC cells assessed as kidney damage upto 50 mg/kg, IG measured after 14 days; type: organism-based; conditions: in vivo, po, 336 h, time 14 day
[9] = target: T1, Lysine-specific histone demethylase 1A; assay: Inhibition of LSD1 in human BGC-823 cells assessed as induction of H3K4me1 accumulation at 0.5 to 2 uM incubated for 5 days by Western blot analysis; type: cell-based; conditions: dose 0.5-2 µM, time 5.0 day
[10] = system: BGC-823; assay: Cytotoxicity against human BGC-823 cells co-cultured with T cells assessed as increase in IL-2 mRNA level at 1 uM by qRT-PCR analysis; type: functional, cell-based
[11] = system: MFC; assay: Antitumor activity against MFC cells implanted in 615 mouse assessed as reduction in tumor size at 15 to 50 mg/kg, IG administered for 14 days; type: functional, organism-based; conditions: dose 15-50 mg/kg, time 14.0 day
[12] = system: MFC; assay: Antitumor activity against MFC cells implanted in 615 mouse assessed as increase in IL-2 mRNA level at 15 to 50 mg/kg, IG administered for 14 days by qRT-PCR analysis; type: functional, organism-based; conditions: dose 15-50 mg/kg, time 14.0 day
[13] = system: BGC-823; assay: Cytotoxicity against human BGC-823 cells co-cultured with T cells assessed as increase in IFN-gamma mRNA level at 1 uM by qRT-PCR analysis; type: functional, cell-based
[14] = system: MFC; assay: Downregulation of PD-L1 level in MFC cells incubated for 5 days by Western blot analysis; type: functional, cell-based; conditions: Mus musculus, dose 0.5-2 µM, time 5.0 day
[15] = system: MFC; assay: Antiproliferative activity against MFC cells assessed as inhibition of cell proliferation at 2 uM incubated for 5 days by CCK8 assay; type: functional; conditions: Mus musculus, 120 h, time 5 day
[16] = target: T1, Lysine-specific histone demethylase 1A; assay: Inhibition of LSD1 in human BGC-823 cells assessed as induction of H3K4me2 accumulation at 0.5 to 2 uM incubated for 5 days by Western blot analysis; type: cell-based; conditions: dose 0.5-2 µM, time 5.0 day
[17] = system: BGC-823; assay: Cytotoxicity against human BGC-823 cells co-cultured with T cells assessed as increase in CCR10 mRNA level at 1 uM by qRT-PCR analysis; type: functional, cell-based
[18] = system: MFC; assay: Antitumor activity against MFC cells implanted in 615 mouse assessed as increase in IFN-gamma mRNA level at 15 to 50 mg/kg, IG administered for 14 days by qRT-PCR analysis; type: functional, organism-based; conditions: dose 15-50 mg/kg, time 14.0 day
[19] = system: BGC-823; assay: Inhibition of stemness in human BGC-823 cells assessed as inhibition of SOX2 expression at 0.5 to 2 uM by Western blot analysis; type: functional, cell-based; conditions: dose 0.5-2 µM
[20] = system: MFC; assay: Antitumor activity against MFC cells implanted in 615 mouse assessed as increase in TNF-alpha mRNA level at 15 to 50 mg/kg, IG administered for 14 days by qRT-PCR analysis; type: functional, organism-based; conditions: dose 15-50 mg/kg, time 14.0 day
[21] = Toxicity in 615 mouse implanted with MFC cells assessed as liver damage upto 50 mg/kg, IG measured after 14 days; type: organism-based; conditions: in vivo, po, 336 h, time 14 day
[22] = Toxicity in 615 mouse implanted with MFC cells assessed as change in body weight upto 50 mg/kg, IG measured after 14 days; type: organism-based; conditions: in vivo, po, 336 h, time 14 day
[23] = system: BGC-823; assay: Inhibition of stemness in human BGC-823 cells assessed as inhibition of CD44 expression at 0.5 to 2 uM by Western blot analysis; type: functional, cell-based; conditions: dose 0.5-2 µM
[24] = system: MFC; assay: Downregulation of PD-L1 mRNA level in MFC cells at 0.5 to 2 uM incubated for 5 days by qRT-PCR analysis; type: functional, cell-based; conditions: Mus musculus, dose 0.5-2 µM, time 5.0 day
[25] = system: BGC-823; assay: Downregulation of PD-L1 level in human BGC-823 cells incubated for 5 days by Western blot analysis; type: functional, cell-based; conditions: dose 0.5-2 µM, time 5.0 day
[26] = system: MFC; assay: Antitumor activity against MFC cells implanted in 615 mouse assessed as decrease in PD-L1 expression in tumor administered intragastrically for 14 days by Western blot analysis; type: functional, cell-based; conditions: dose 15-50 mg/kg, route ig, time 14.0 day
[27] = system: BGC-823; assay: Cytotoxicity against human BGC-823 cells co-cultured with T cells assessed as reduction in cell viability pretreated for 5 days followed by co-incubation with T cells for 4 days by CCK8 assay; type: functional, cell-based; conditions: dose 0.5-2 µM, time 5.0 day
[28] = system: BGC-823; assay: Inhibition of cell migration in human BGC-823 cells at 0.5 to 2 uM measured upto 48 hrs by fluorescence microscope based wound healing assay; type: functional; conditions: dose 0.5-2 µM
[29] = system: BGC-823; assay: Cytotoxicity against human BGC-823 cells co-cultured with T cells assessed as increase in TNF-alpha mRNA level at 1 uM by qRT-PCR analysis; type: functional, cell-based
[30] = target: Programmed cell death protein 1/Programmed cell death 1 ligand 1 (Homo sapiens) (UniProt Q15116+Q9NZQ7); assay: Inhibition of Fc-tagged recombinant human PD-1 binding to PD-L1 in human BGC-823 cells incubated for 5 days by DAPI staining based confocal microscopic analysis; type: cell-based; conditions: dose 0.5-2 µM, time 5.0 day
[31] = system: BGC-823; assay: Cytotoxicity against human BGC-823 cells co-cultured with T cells assessed as increase in CCR7 mRNA level at 1 uM by qRT-PCR analysis; type: functional, cell-based

Cc1ccc2c(Nc3ccc(N(C)C)cc3)c3ccc([N+](=O)[O-])cc3nc2c1C
IC50 [1]: > 10 µM

CN(C)C(=O)c1ccc(Nc2c3ccccc3nc3ccccc23)cc1
IC50 [1]: > 10 µM

Cc1ccc2nc3c(C)c(C)ccc3c(Nc3ccc(N(C)C)cc3)c2c1
Activity [2]: Active | Activity [3]: Dose-Dependent Effect | Activity [4]: Active | inhibition [5]: Active | Activity [6]: Active | inhibition [7]: Active | Activity [8]: Non-Toxic | inhibition [9]: Active | Activity [10]: Active | Activity [11]: Active | Activity [12]: Active | IC50 [1]: 0.013 µM | Activity [13]: Active | Activity [14]: Dose-Dependent Effect | inhibition at 2 µM [15]: > 10% | inhibition [16]: Active | Activity [17]: Active | Activity [18]: Active | inhibition [19]: Active | Activity [20]: Active | Activity [21]: Non-Toxic | Activity [22]: Non-Toxic | inhibition [23]: Active | Activity [24]: Active | Activity [25]: Dose-Dependent Effect | Activity [26]: Dose-Dependent Effect | Activity [27]: Dose-Dependent Effect | inhibition [28]: Active | Activity [29]: Active | inhibition [30]: Dose-Dependent Effect | Activity [31]: Active

CN(C)Cc1ccc(Nc2c3ccccc3nc3ccccc23)cc1
IC50 [1]: > 10 µM

CN(C)c1ccc(Nc2c3ccccc3nc3c(N(C)C)cccc23)cc1
IC50 [1]: > 10 µM
